# Assay results: patent US12404332B2, “Methods for diagnosing and treating cancers” (Research Development Foundation, priority 2020, dated 2025)
# Entries after “also recorded” stand apart in the source; their conditions may differ.
# Columns and labels:
# PD-L1 = assay: Tumor cell PD-L1 depletion by drugs (flow cytometry, immunoblot); format: cell-based, human and mouse
# Description: High throughput Screening: B16 PD-L1 RFP cells were treated with 2.5 and 10 μM compounds from the Prestwick and LOPAC Libraries for 48 hours using the Agilent Bravo liquid pipetting platform. Then, cells were washed with PBS, and fixed with 4% paraformaldehyde (Electron Microscopy Sciences, Hatsfield, PA, Cat 15714S) and labeled with 2 μg/ml DAPI, (Molecular Probes, Cat D1306) and 1 μg/ml Cell Mask-Blue (Invitrogen, Cat. H32720). Plates were then imaged using the Operetta High Content Imaging System, Perkin Elmer, Waltham (DAPI and Cell Mask Blue, Ex 360-400, Em 410-480), and the RFP channels (Ex 520-550, Em 560-630) channels. Agents effecting ≥2-fold PD-L1 reduction in the RFP reporter without loss of ≥20% cell viability were candidate PD-L1 depletion agents.
# (§1) Flow cytometry: Mice were sacrificed by cervical dislocation after induction of deep isoflurane anesthesia. ID8agg tumors were collected and cells were stained as described (Derup et al., 2020) using LSR II hardware and analyzed by FACS Diva (BD Bioscience) or Flow Jo software (Flow Jo, LLC). Anti-mouse (clone 10F.9G2) and human (clone 29E.2A3) PD-L1 [both PE/Cy7, Cat #124314 (mouse) 329718 (human)] were matched with isotype control. Apoptosis assessment used Annexin V and propidium iodide (Thermo Scientific) per manufacturer instruction.
# (§2) Western blotting and immunoprecipitation: To prepare whole cell lysates, cells were harvested and lysed in RIPA (radioimmunoprecipitation assay) buffer plus 1 mM phenylmethylsulphonyl fluoride and Halt protease/phosphatase inhibitor cocktail (Thermo Scientific) at 4° C. Protein concentrations were measured by BCA Protein Assay Kit (Thermo Scientific). Protein was run on precast 4-15% sodium dodecyl sulfate polyacrylamide gels (Bio-Rad), transferred to polyvinylidene fluoride membranes (GE Water and Process Technologies), and then blocked in 5% non-fat milk for 1 hour at room temperature. The membranes were then incubated with 1:1000 diluted primary antibodies against indicated proteins (Cell Signaling). Specific antibody binding was detected by chemiluminescence using Western Lightening Plus regent (Perkin Elmer). Cells for (co) immunoprecipitation experiments were seeded in 15-cm dishes and cultured as described, using 6 million cells per immunoprecipitation reaction. For protein ubiquitination, cells were lysed in denaturing buffer (50 mM Tris-HCl, 0.5 mM EDTA and 1% SDS) followed by heating at 95° C. for 10 minutes and then quenched with 9 volumes of quenching buffer (0.5% Triton X-100, 20 mM Tris-HCl (pH 8.0), 137 mM NaCl, 10% glycerol, 2 mM EDTA). Protease inhibitor cocktail (Roche) was added fresh to all buffers. Cell lysates were incubated on a rotator for 30 minutes at 4° C., and then centrifuged at 20,000 g for 15 minutes at 4° C. Supernatants were subsequently incubated with anti-PD-L1 antibody overnight and processed using Dynabeads Protein G for Immunoprecipitation (Thermo Fisher Scientific). The final eluate was processed and Western blotting was performed.
# ID8agg tumors = format: in vivo, mouse
# Text: Mice and in vivo treatments: Wild-type (WT) C57BL/6 mice NSG were purchased from Jackson Labs (Bar Harbor, ME), bred in our animal facility and used at 7-20 weeks old. All mice were given ad libitum water and food and housed under specific pathogen-free conditions. Mice used here were matched for sex and age in each experiment. 1×10^5 control or PD-L1^KOB16 cells were given subcutaneously (SQ, both sexes). 4×10^6 control or PD-L1^lo ID8agg cells in log growth phase were given intraperitoneally (females only). B16 tumor growth was measured with Vernier calipers and volume was calculated as (length×width^2)/2. Intraperitoneal ID8agg tumor growth was determined by IVIS Lumina Imaging System (Perkin Elmer; Waltham, MA) 15 minutes after i.p. injection of 3 mg of PBS-dissolved d-luciferin K+ (Gold Biotechnology; St. Louis, MO) with 30 second exposures, medium binning, and F/stop=1. Identical regions of interest were drawn over each subject's abdomen and average radiance (photons/see/cm2/sr) was quantified with Living Image software version 4.2. Body weight was measured every week for PD-L1^lo ID8agg mice as a surrogate for tumor growth, and tumors were weighed at end-experiment in confirmation. Survival was determined as >1500 mm^3 for SQ tumors and distress or >20% mouse weight gain for PD-L1^lo ID8agg tumors. Intraperitoneal injection of chlorambucil was given at indicated doses (optimized for each tumor and treatment condition in preliminary assessments not shown) for 3 treatment cycles starting 7 days after tumor cell challenge. Each chlorambucil cycle was 5 consecutive days of a single injection followed by two days of rest. αPD-L1 (clone 10F.9G2) or respective isotype control was injected intraperitoneally at 100 μg/mouse every 5 days starting on day 7 after tumor challenge for times indicated.
# mTORC1 = assay: Western blots for mTORC1 pathway and LC3 autophagy; format: cell-based
# Description: (§3) FIGS. 40A-C: CAMB suppresses mTORC1 signals and reduces TIC numbers. FIG. 40A, Western blots for proteins in the mTORC1 pathway. Cells were treated with chlorambucil as indicated concentration for 48 hours. FIG. 40B, Western blot for LC3I/II to assess autophagy in cell lysates treated±chlorambucil at indicated concentrations. FIG. 40C, Percent of ALDH^hi TIC by flow cytometry of ES2 cells cultured±chlorambucil. Percent CD44^+CD24^+ ID8agg TIC and CD44^+CD133^+CD24^+ B16 TIC detected by flow cytometry.
# as §2
# B16 cells = assay: Tumor-initiating cell (TIC) flow cytometry, B16 cells; format: cell-based, mouse
# Description: as §3, §1
# ID8agg cells = assay: Tumor-initiating cell (TIC) flow cytometry, ID8agg cells; format: cell-based, mouse
structure (smiles),measurement,setting,value
O=C(O)CCCc1ccc(N(CCCl)CCCl)cc1 [chlorambucil],effect on cell viability,"PD-L1; over 2-3 days, human and mouse tumor lines",little effect on cell viability
same,expression of PD-L1 in cancer cells,PD-L1; summary statement,decreased expression of PD-L1
same,sensitization of ID8agg to αPD-L1,ID8agg tumors; CAMB dose ineffective as a single agent,sensitized ID8agg to αPD-L1
same,tumor PD-L1 in vivo,"ID8agg tumors; ID8agg challenge, ascites",reduced tumor PD-L1 in ascites
same,PD-L1^lo ID8agg growth,"ID8agg tumors; WT mice, dose and schedule as for ID8agg",unable to suppress
same,single agent efficacy at the dose used for the combination,"ID8agg tumors; mouse, in vivo",ineffective as a single agent
same,treatment of tumors,"ID8agg tumors; severely immunodeficient NSG mice, ID8agg",effectively treated both
same,mouse survival,"ID8agg tumors; wild type mice, ID8agg",prolonged mouse survival
same,tumor volume,"ID8agg tumors; wild type mice, ID8agg",significantly reduced tumor volume
same,autophagy,mTORC1,promote autophagy
same,mTORC1 signals,mTORC1,suppress mTORC1 signals; also recorded: inhibits mTORC1 signaling
same,LC3 lipidation (LC3 I and II),mTORC1; Western blot,increased LC3 lipidation
same,phosphorylation of P70S6K and 4EBP1,mTORC1; Western blot,reduced phosphorylation of P70S6K and 4EBP1 in a dose-dependent manner
same,CD44^+CD24^+ TIC population,B16 cells,significantly reduced
same,CD44^+CD133^+CD24^+ TIC population,ID8agg cells,significantly reduced
